Experimental data: PMC11192081, “Evidence that the cold- and menthol-sensing functions of the human TRPM8 channel evolved separately” (Science Advances, 2024)

Experiments:
[1] = test system: T1, AncVert TRPM8; assay: Fluoforte calcium flux assay, HEK-293T stable cells; assay type: cell-based; details: Homo sapiens
T1 construct: tetramer

[2] = test system: T2, AncMam TRPM8; assay: as above; assay type: cell-based; details: Homo sapiens
T2 construct: tetramer

CC(C)[C@@H]1CC[C@@H](C)C[C@H]1O [menthol]
EC50 [1]: 140 ± 40 µM
EC50 [2]: 10 ± 1 µM
